# From US10189796B2, “[4-(1,3,3-trimethyl-2-oxo-3,4-dihydro-1H-quinoxalin-7-yl)phenoxy]ethyloxy compound or salt thereof” (SANTEN PHARMACEUTICAL CO., LTD., priority 2015, dated 2019)
# Experiments:
# [1] = system: VEGF-induced retinal elevated vascular permeability model of rabbits; assay: Retinal vascular permeability model evaluation test; format: in vivo, rabbit; conditions: intravitreal once, 4 weeks before VEGF induction
# Description: In order to evaluate the inhibitory effect of the present compounds on VEGF-induced retinal vascular permeability, the inhibitory effect of the present compound on retinal vascular permeability in a VEGF-induced retinal elevated vascular permeability model of rabbits was evaluated. Incidentally, this effect was evaluated by calculating a leaked amount of the fluorescent dye of the base agent administered group (non-induced group), a leaked amount of the fluorescent dye of the base agent administered group (control group) and a leaked amount of the fluorescent dye of the test compound administered group.
# To the test compound was added 0.01% Polysorbate 80/0.5% sodium carboxymethyl cellulose/PBS (hereinafter referred to as “base agent A”.), whereby 2% (W/V) or 8% (W/V) of the test compound suspension was prepared. Or else, to the test compound was added PEG400 (hereinafter referred to as “base agent B”.), whereby 6% (W/W) of the test compound solution was prepared.
# VEGF solution: humanVEGF165 was dissolved in PBS to prepare 50 μg/mL of VEGF solution.
# • 1) A mixed solution (1 mL/kg) of 5% ketamine hydrochloride injection solution and 2% xylazine hydrochloride injection solution with the ratio of 7:1 was intramuscularly administered to rabbits (Dutch male rabbits), and the rabbits were anesthetized. • 2) Tropicamide-phenylephrine hydrochloride ophthalmic solution (trade name: Midlin P) was eye dropped to maintain pupillary mydriasis, and then, the VEGF solution was intravitreally administered. Incidentally, PBS was intravitreally administered to the base agent administration group (non-induced group). • 3) Fluorescein was intravenously administered 2 days after intravitreal administration of VEGF. Two hours after the intravenous administration of fluorescein, an amount of the leaked fluorescent dye in the vitreous body was measured by using a fluorophotometer. (Test Method) • 1) One week before or 4 weeks before VEGF-induction, 50 μL of the test compound suspension (prepared by the base agent A) was intravitreally administered once, or 5 μL of the test compound solution (prepared by the base agent B) was intravitreally administered once. Incidentally, in the base agent administered group (non-induced group) and the base agent administered group (control group), the base agent A was used in place of the test compound suspension, or the base agent B was used in place of the test compound solution. • 2) Inhibition ratio of elevated retinal vascular permeability was calculated according to the following calculation formula. (Calculation Formula) Inhibitory ratio (%) on elevated retinal vascular permeability of the test compound administered group=100×{1−(average value of a leaked fluorescent dye amount in the test compound administered group−average value of a leaked fluorescent dye amount in the base agent administered group (non-induced group))/(average value of a leaked fluorescent dye amount in the base agent administered group (control group)−average value of a leaked fluorescent dye amount of the base agent administered group (non-induced group))}
# Recombinant human GR = Recombinant human GR (Homo sapiens (Human), UniProt P04150); assay: GR competitive binding assay by fluorescence polarization; conditions: 20 μM test compound solution, 10 μL/well; 2 hours; DEX positive control; read-out: GR binding rate (%)
# Recombinant human GR, sequence (P04150 whole entry): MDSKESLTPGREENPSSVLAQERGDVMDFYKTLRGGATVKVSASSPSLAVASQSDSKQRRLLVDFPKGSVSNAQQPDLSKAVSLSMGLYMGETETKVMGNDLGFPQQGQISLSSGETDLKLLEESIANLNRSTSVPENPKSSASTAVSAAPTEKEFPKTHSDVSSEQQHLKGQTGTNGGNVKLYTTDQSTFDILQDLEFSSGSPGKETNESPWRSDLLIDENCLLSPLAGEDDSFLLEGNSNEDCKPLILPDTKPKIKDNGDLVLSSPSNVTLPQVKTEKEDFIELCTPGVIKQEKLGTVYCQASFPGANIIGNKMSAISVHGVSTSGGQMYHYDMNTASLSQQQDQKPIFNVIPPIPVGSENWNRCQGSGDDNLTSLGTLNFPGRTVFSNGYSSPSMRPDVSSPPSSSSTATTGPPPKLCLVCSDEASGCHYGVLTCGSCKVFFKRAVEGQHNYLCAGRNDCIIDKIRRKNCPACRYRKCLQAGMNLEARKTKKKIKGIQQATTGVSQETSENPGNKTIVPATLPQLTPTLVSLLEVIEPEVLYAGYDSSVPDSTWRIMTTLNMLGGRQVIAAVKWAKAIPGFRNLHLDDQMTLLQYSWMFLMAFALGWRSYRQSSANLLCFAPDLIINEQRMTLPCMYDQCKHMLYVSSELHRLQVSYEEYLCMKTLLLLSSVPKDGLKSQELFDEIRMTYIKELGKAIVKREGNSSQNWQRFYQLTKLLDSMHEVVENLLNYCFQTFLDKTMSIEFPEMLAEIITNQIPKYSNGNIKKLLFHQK
# Description: In order to evaluate a binding activity of the present compound to GR, a GR receptor competitor assay was carried out by a fluorescence polarization method. In the assay, a GR competitive binding assay kit (manufactured by Invitrogen, cat No. P2816) was used for the assay, and a procedure was carried out according to the protocol attached to the kit. Hereinafter, the specific method will be described.
# GR screening buffer: A buffer containing 10 mM of potassium phosphate (pH 7.4), 20 mM of sodium molybdate (Na2MoO4), 0.1 mM of ethylene diamine tetraacetic acid (EDTA), 5 mM of dithiothreitol (DTT), 0.1 mM of stabilizing peptide and 2% of dimethylsulfoxide was prepared.
# 4×GS1 solution: Fluormone™ GS1, which is a fluorescent glucocorticoid ligand, was diluted with GR screening buffer, whereby a 4 nM solution was prepared.
# 4×GR solution: Recombinant human GR was diluted with GR screening buffer, whereby a 16 nM solution was prepared.
# After a test compound was dissolved in dimethylsulfoxide, the resulting solution was diluted with GR screening buffer, whereby a 20 μM test compound solution was prepared. In addition, DEX was similarly dissolved, whereby a DEX solution with a […] concentration was prepared, and the solution was diluted with GR screening buffer, whereby a 2 mM DEX solution was prepared. DEX was used as positive control.
# • 1) The test compound solution was added in an amount of 10 μL into each well of a 384-well plate. • 2) 4×GS1 solution and 4×GR solution were added in an amount of 5 μL into each well, respectively. • 3) GR screening buffer was added in an amount of 10 μL/well into each well in place of the test compound solution, which was made a negative control. • 4) A 2 mM of DEX was added in an amount of 10 μL/well into each well in place of the test compound solution, which was made a positive control. • 5) The plate was incubated in a dark place at room temperature for 2 hours, and fluorescence polarization of each well was measured. (Calculation Equation of GR Binding Ratio)
# A GR binding ratio (%) was calculated from the following equation. GR binding ratio (%)=100×{1−(fluorescence polarization of test compound solution−average value of fluorescence polarization of positive control solution)/(average value of fluorescence polarization of negative control solution−average value of fluorescence polarization of positive control solution)}
# [2] = system: IL-6 production in human corneal epithelium cell line (HCE-T); assay: IL-6 production inhibitory action evaluation test (LPS stimulation, HTRF); format: cell-based; conditions: 4 hours
# Description: To evaluate the action of the present compounds as a GR agonist, IL-6 production inhibitory action in human corneal epithelial cell line after LPS stimulation was examined The IL-6 production was measured by using the HTRF method (Cat No. 62IL6PEB manufactured by Cisbio Bioassays, Inc.) according to the attached protocol. The specific method is described below.
# LPS solution: After dissolving LPS in PBS(−), the resulting solution was diluted with a culture solution, whereby an LPS solution with a 1 μg/mL concentration was prepared.
# After dissolving the test compound in dimethylsulfoxide, the solution was diluted with a 10% FBS-DMEM/Ham's F12 medium, whereby a 100 μM of the test compound solution was prepared. […] In addition, DEX was similarly dissolved, whereby a 100 μM concentration of the DEX solution was prepared, and an IL-6 production inhibitory ratio of DEX was measured, and used for calculation of Efficacy (% DEX).
# Used cells: human corneal epithelium cell line (HCE-T) (RIKEN, Institute of Physical and Chemical Research)
# The cells continued to subculture according to this method were used for the test. (Test Method and Measurement Method) • 1) The subcultured HCE-T was recovered and the cells were seeded at 2.0×10^4 cells/0.1 mL/well in a 96-well flat bottom culture plate. • 2) After culturing overnight, medium the medium was removed and each 80 μL/well of 10%
# FBS-DMEM/Ham's F12 medium was added. • 3) Test compound solution was added with each 10 μL/well. • 4) LPS solution was added with each 10 μL/well. • 5) The sample to which 1% dimethylsulfoxide-containing 10% FBS-DMEM/Ham's F12 medium was added with each 10 μL/well in place of each test compound solution, and 10% FBS-DMEM/Ham's F12 medium was added in place of the LPS solution was made a negative control. • 6) The sample in which 1% dimethylsulfoxide-containing 10% FBS-DMEM/Ham's F12 medium was added with each 10 μL/well in place of each test compound solution was made a positive control. • 7) After completion of 4 hours cultivation, the supernatant was recovered and the amount of IL-6 released in the supernatant was measured by using an HTRF human IL-6 Kit. • 8) The IL-6 production inhibitory ratio was calculated according to the following calculation formula. (Calculation of IL-6 Production Inhibitory Ratio)
# (§1) The IL-6 production inhibitory ratio (%) was calculated by the following formula. IL-6 production inhibitory ratio (%)=100×{1−(IL-6 produced amount of each test compound solution−average value of IL-6 produced amount of negative control group)/(average value of IL-6 produced amount of positive control group−average value of IL-6 produced amount of negative control group)}(%)
# Further, the IL-6 production inhibitory ratio (Efficacy (% DEX)) when the DEX treated group was made 100 was calculated. Efficacy (% DEX)=100×{(average value of IL-6 production inhibitory ratio of each test compound solution)/(average value of IL-6 production inhibitory ratio of DEX treated group)}(%)
# In addition, IC50 was calculated according to a conventional method. IDBS XLfit4 was used for the calculation.
# [3] = system: TNFα production in rat whole blood; assay: TNFα production inhibitory action evaluation test (LPS stimulation ex vivo, ELISA); format: cell-based; conditions: 20 hours, 200 μM test compound solution 10 μL/well, DEX treated group = 100, read-out: TNFα production inhibitory ratio (% DEX)
# Description: In order to evaluate an action of the present compound as a GR agonist, a TNFα production inhibitory action in rat whole blood after LPS stimulation ex vivo was investigated. For the measurement of the TNFα production amount, the ELISA method (manufactured by R&D Systems, Cat No. RTA00) was used, and a procedure was carried out according to the protocol attached thereto. Hereinafter, the specific method will be described.
# LPS solution: LPS was dissolved in PBS(−) and diluted with RPMI 1640 to prepare an LPS solution with a concentration of 2 μg/mL.
# After the test compound was dissolved in dimethylsulfoxide, the solution was diluted with PBS(−) to prepare 200 μM of a test compound solution. In addition, DEX was similarly dissolved to prepare 200 μM of a DEX solution, and a TNFα production inhibitory ratio of DEX was measured, and used for calculation of Efficacy (% DEX).
# • 1) Blood was collected from 3 to 5 rats using an injection syringe treated with heparin from the abdominal aorta under isoflurane anesthesia. The rats confirmed death after lething the whole blood. • 2) The blood of 3 to 5 rats pooled in a 96-well round bottom culture plate was seeded at each 180 μL/well. • 3) It was cultured (37° C., 5% CO2, 95% air) for about 1 hour. • 4) The test compound solution was added each 10 μL/well, and cultured for 1 hour. • 5) LPS solution was added each 10 μL/well. • 6) The sample in which 2% dimethylsulfoxide-containing PBS(−) was added with each 10 μL/well in place of each test compound solution, and RPMI 1640 was added with each 10 μL/well in place of the LPS solution was made a negative control. • 7) The sample in which 2% dimethylsulfoxide-containing PBS(−) was added with each 10 μL/well in place of each test compound solution was made a positive control. • 8) After completion of 20 hours cultivation, the supernatant was recovered and the amount of TNFα released in the supernatant was measured by using an ELISA Kit. • 9) The TNFα production inhibitory ratio was calculated according to the following calculation formula. (Calculation of TNFα Production Inhibitory Ratio)
# as §1, with “TNFα” for “The IL-6”, “according to” for “by”, “TNFα” for “IL-6”, “(%)=100×{1−(TNFα production” for “(%)=100×{1−(IL-6 produced”, “TNFα production” for “IL-6 produced”
# Further, a TNFα production inhibitory ratio (Efficacy (% DEX)) when the DEX treated group was made 100 was calculated. Efficacy (% DEX)=100×{(average value of TNFα production inhibitory ratio of each test compound solution)/(average value of TNFα production inhibitory ratio of DEX treated group)}(%)
structure (smiles),measurement,setting,value
"COc1cc(OC[C@H](CC#N)OP(=O)(O)O)ccc1-c1ccc2c(c1COc1cc(F)ccc1C)N(C)C(=O)C(C)(C)N2 [Compound 14-3, (S)-7-[4-(3-cyano-2-phosphonohydroxypropyl)oxy-2-methoxyphenyl]-8-(5-fluoro-2-methylphenoxymethyl)-1,3,3-trimethyl-3,4-dihydro-1H-quinoxalin-2-one]",Inhibitory ratio (%) on elevated vascular permeability,[1]; 8% 50 μL/base agent A,89%
"CC[C@@H](O)COc1ccc(-c2ccc3c(c2COc2cc(F)ccc2C)N(C)C(=O)C(C)(C)N3)c(OC)c1 [Compound 1-4, (R)-8-(5-fluoro-2-methylphenoxymethyl)-7-[4-(2-hydroxybutyl)oxy-2-methoxyphenyl]-1,3,3-trimethyl-3,4-dihydro-1H-quinoxalin-2-one]",inhibition at 10 µM,Recombinant human GR,> 99%
same,Emax,"[2]; 100 μM test compound solution 10 μL/well, DEX treated group = 100, read-out: IL-6 production inhibitory ratio (% DEX)",92%
same,IC50,[2]; IL-6 production inhibition,34 nM
same,Emax,[3],94%
"COc1cc(OC[C@H](C)OC(=O)C2CCCN2)ccc1-c1ccc2c(c1COc1cc(F)ccc1C)N(C)C(=O)C(C)(C)N2.Cl (stereo partly drawn) [Compound 11-2, 8-(5-Fluoro-2-methylphenoxymethyl)-7-[4-[(2S)-[(2S)-pyrrolidylcarbonyloxy]-propyl]oxy-2-methoxyphenyl]-1,3,3-trimethyl-3,4-dihydro-1H-quinoxalin-2-one hydrochloride]",Inhibitory ratio (%) on elevated vascular permeability,[1]; 2% 50 μL/base agent A,92%
